Assay [1] deals with Histone acetyltransferase KAT2B (Homo sapiens) (UniProt Q92831). The assay is described as follows: Inhibition of recombinant human PCAF catalytic domain (492 to 658 aa) using histone H3 at 100 uM after 1 hr by radiochemical assay in presence of [acetyl-3H]-acetyl coenzyme A.
Assay [2] deals with Histone acetyltransferase p300 (Homo sapiens) (UniProt Q09472). The assay is described as follows: Inhibition of recombinant human p300 catalytic domain (1284 to 1673 aa) using histone H3 at 100 uM after 1 hr by radiochemical assay in presence of [acetyl-3H]-acetyl coenzyme A.
For assay [3] the target is unchanged. The assay is described as follows: Inhibition of recombinant human p300 catalytic domain (1284 to 1673 aa) using histone H3 at 200 uM after 1 hr by radiochemical assay in presence of [acetyl-3H]-acetyl coenzyme A.
For assay [4] the target is unchanged. The assay is described as follows: Inhibition of recombinant human p300 catalytic domain (1284 to 1673 aa) using histone H3 at 400 uM after 1 hr by radiochemical assay in presence of [acetyl-3H]-acetyl coenzyme A.

Broadly, the inhibition is the relative decrease from the control value, in per cent.

Sequence of Histone acetyltransferase p300 (Homo sapiens) (Q09472 whole entry, the tested form may be a part): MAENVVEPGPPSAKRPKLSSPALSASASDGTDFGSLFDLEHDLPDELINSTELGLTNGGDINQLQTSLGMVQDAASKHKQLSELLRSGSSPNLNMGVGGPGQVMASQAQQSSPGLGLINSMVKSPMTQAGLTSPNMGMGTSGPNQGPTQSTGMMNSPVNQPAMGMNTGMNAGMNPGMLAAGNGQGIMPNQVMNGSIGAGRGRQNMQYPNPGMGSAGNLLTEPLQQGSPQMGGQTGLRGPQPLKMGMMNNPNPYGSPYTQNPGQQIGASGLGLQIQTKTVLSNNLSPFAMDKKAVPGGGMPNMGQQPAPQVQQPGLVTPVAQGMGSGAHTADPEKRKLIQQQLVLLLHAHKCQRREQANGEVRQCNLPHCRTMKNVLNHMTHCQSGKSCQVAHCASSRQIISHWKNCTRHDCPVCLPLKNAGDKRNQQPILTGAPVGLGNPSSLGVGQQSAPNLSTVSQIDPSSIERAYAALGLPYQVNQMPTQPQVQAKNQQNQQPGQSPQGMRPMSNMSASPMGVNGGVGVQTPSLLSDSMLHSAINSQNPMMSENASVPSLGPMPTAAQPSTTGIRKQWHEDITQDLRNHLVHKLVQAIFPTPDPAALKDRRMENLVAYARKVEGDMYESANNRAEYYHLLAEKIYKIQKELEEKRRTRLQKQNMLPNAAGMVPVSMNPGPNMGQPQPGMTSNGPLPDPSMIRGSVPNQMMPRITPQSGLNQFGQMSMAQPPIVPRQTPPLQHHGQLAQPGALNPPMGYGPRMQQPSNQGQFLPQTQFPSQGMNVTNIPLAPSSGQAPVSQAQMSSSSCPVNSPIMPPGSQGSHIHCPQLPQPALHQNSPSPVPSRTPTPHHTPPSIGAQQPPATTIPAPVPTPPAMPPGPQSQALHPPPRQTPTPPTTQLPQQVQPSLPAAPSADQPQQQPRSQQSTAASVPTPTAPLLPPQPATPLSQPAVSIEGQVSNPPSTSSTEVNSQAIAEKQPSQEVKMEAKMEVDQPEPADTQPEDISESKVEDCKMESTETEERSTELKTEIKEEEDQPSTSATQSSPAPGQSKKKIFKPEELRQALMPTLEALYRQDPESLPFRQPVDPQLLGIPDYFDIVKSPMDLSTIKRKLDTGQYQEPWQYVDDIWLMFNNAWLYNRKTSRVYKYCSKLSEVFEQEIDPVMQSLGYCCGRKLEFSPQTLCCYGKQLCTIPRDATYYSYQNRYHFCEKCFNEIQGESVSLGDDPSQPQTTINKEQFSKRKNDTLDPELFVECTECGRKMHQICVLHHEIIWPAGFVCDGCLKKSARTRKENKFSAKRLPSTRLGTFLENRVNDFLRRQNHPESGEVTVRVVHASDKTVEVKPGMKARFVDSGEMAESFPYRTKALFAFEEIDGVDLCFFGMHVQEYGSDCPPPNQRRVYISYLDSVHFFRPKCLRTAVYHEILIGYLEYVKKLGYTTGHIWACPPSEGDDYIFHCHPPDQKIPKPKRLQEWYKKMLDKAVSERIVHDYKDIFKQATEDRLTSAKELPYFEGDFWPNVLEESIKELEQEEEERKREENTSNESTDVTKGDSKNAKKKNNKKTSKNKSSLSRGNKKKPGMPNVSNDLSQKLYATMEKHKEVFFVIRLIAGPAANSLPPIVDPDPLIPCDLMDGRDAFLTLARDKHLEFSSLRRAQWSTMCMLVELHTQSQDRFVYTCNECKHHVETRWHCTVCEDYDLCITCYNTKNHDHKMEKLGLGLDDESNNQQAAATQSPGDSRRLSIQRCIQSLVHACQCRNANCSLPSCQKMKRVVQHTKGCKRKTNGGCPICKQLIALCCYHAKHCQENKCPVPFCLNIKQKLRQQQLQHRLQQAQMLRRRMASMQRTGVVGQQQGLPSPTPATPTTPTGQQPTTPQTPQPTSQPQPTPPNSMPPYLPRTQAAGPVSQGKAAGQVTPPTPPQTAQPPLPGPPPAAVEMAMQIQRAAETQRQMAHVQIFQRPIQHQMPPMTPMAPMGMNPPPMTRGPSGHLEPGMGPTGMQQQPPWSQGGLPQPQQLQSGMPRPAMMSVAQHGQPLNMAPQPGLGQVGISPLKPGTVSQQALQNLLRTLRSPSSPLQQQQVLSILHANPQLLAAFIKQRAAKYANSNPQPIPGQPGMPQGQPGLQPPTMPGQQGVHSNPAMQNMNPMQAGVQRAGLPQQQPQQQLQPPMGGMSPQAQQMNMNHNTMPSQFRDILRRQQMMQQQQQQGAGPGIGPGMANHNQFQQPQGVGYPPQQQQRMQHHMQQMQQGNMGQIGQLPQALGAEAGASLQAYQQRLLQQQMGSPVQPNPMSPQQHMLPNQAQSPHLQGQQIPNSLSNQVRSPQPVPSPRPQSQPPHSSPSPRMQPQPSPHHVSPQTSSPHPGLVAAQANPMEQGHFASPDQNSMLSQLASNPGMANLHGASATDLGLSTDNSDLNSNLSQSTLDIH
Sequence of Histone acetyltransferase KAT2B (Homo sapiens) (Q92831 whole entry, looked up, the tested form may be a part): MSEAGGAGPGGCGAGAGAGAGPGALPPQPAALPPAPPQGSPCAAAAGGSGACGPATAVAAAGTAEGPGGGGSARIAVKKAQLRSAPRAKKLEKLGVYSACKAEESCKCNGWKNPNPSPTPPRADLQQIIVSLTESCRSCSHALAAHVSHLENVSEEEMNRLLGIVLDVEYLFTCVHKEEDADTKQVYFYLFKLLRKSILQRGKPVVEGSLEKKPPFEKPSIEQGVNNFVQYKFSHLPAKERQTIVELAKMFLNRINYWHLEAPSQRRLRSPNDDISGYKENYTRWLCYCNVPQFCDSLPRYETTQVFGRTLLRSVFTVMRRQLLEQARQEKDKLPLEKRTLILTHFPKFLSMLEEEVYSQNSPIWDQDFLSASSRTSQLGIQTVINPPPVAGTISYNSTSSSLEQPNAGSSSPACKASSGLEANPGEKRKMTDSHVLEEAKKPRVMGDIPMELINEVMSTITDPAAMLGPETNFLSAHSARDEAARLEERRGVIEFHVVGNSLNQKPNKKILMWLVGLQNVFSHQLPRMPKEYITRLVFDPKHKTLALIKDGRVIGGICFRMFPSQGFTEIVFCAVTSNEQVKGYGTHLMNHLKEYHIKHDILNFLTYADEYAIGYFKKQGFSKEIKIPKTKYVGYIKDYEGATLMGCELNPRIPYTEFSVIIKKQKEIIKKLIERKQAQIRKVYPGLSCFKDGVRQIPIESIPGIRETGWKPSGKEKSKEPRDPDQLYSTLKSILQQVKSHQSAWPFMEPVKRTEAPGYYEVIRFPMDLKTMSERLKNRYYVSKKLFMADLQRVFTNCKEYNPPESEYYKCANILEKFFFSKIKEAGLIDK

For the compound `Cc1csc(NN=C2CCCC2)n1`, the inhibition is 30% in assay [1] and 0% in assay [2].
For the compound `CC(C)=NNc1nc(-c2ccc(Br)cc2)cc(=O)[nH]1`, in assay [2], the inhibition worked out at 9%.
In the case of `Clc1ccc(-c2csc(N/N=C\c3cccc4ccccc34)n2)cc1`, the inhibition is 0% in assay [1] and 9% in assay [2].
The like results for `C=CCC/C(C)=N/Nc1nc(-c2ccc(Cl)cc2)cs1` were, in that order, 12% and 32%.
The like results for `Clc1ccc(-c2csc(N/N=C\c3cccs3)n2)cc1` were, in that order, 4% and 13%.
The like results for `C/C(=N/Nc1nc(-c2ccc(Cl)cc2)cs1)c1cccnc1` were, in that order, 11% and 1%.
In the case of `COc1ccc(-c2csc(NN=C3CCCC3)n2)cc1`, the inhibition in assay [3] is 47%; in assay [1] it was 11%; in assay [4], 57%; in assay [2] it was 33%.
Take `C/C(=N/Nc1nc(-c2ccc(Cl)cc2)cs1)c1ccccc1`: the inhibition is 9% in assay [1] and 7% in assay [2].
The like results for `Clc1ccc(-c2csc(N/N=C\c3ccc4c(c3)OCO4)n2)cc1` were, in that order, 0% and 11%.
The like results for `CC1(C)C=C/C(=N\Nc2nc(-c3ccc(Cl)cc3)cs2)CC1` were, in that order, 0% and 0%.
Consider `CC(C)=NNc1nc(-c2ccc(F)cc2)cs1`, for which the results for the inhibition in assay [1] and in assay [2] were 0% and 34%, respectively.
Regarding `CC(C)=NNc1nc(-c2ccc(Cl)cc2)cs1`, the inhibition came to 45% in assay [3], 1% in assay [1], 60% in assay [4] and 31% in assay [2].
For the compound `COc1ccc(-c2csc(N/N=C3/CCCC3C)n2)cc1` (centres undefined), the inhibition turned out to be 2% in assay [1] and 32% in assay [2].
Regarding `CC(C)=NNc1nc(-c2ccc3ccccc3c2)cs1`, the inhibition in assay [1] came out at 10%; in assay [2] it was 25%.
The like results for `CCC(C)/C(C)=N/Nc1nc(-c2ccc(Cl)cc2)cs1` (centres undefined) were, in that order, 9% and 2%.
With `CC(C)=NNc1nc(-c2ccccc2)c(C)s1`, the figures for the inhibition in assay [1] and in assay [2] were 5% and 20%, respectively.
The like results for `c1ccc2cc(-c3csc(NN=C4CCCC4)n3)ccc2c1` were, in that order, 8% and 19%.
On to `CC1CCC/C1=N/Nc1nc(-c2ccc(Cl)cc2)cs1` (centres undefined), for which the inhibition worked out at 2% in assay [1] and 33% in assay [2].
Take `CC1CC/C(=N/Nc2nc(-c3ccc(Br)cc3)cc(=O)[nH]2)C1` (centres undefined): the inhibition in assay [2] turned out to be 12%.
For `Clc1ccc(-c2csc(NN=C3CCCCCCC3)n2)cc1`, the inhibition in assay [1] is 6%; in assay [2], 15%.
The like results for `CC1CC/C(=N/Nc2nc(-c3ccc(C#N)cc3)cs2)C1` (centres undefined) were, in that order, 6% and 35%.
Take `C/C(=N/Nc1nc(-c2ccc(Cl)cc2)cs1)c1nccs1`: the inhibition in assay [3] stood at 55%; in assay [1], 10%; in assay [4] it was 67%; in assay [2] it was 46%.
For `O=C1CSC(NN=C2CCCC2)=N1`, the inhibition in assay [1] amounted to 1%; in assay [2], 0%.
For `CC1CC/C(=N/Nc2nc(-c3ccccc3)cc(=O)[nH]2)C1` (centres undefined), the inhibition in assay [2] was 0%.
Turning to `CCCCC/C(C)=N/Nc1nc(-c2ccc(Cl)cc2)cs1`, the inhibition amounted to 16% in assay [1] and 5% in assay [2].
Regarding `O=c1cc(-c2ccc(Br)cc2)nc(NN=C2CCCC2)[nH]1`, the inhibition in assay [2] is 9%.
With `Nc1nc(-c2ccccc2)cs1`, the values for the inhibition in assay [1] and in assay [2] were 3% and 4%, respectively.
The like results for `C/C(=N/Nc1nc(-c2ccc(Cl)cc2)cs1)c1ccco1` were, in that order, 2% and 26%.
Regarding `CC(C)=NNc1nc(C)cs1`, the inhibition is 3% in assay [1] and 13% in assay [2].
Regarding `CCCCCC/C(C)=N/Nc1nc(-c2ccc(Cl)cc2)cs1`, the inhibition is 10% in assay [1] and 8% in assay [2].
For the compound `Clc1ccc(-c2csc(N/N=C\c3ccco3)n2)cc1`, the inhibition in assay [1] is 9%; in assay [2], 15%.
With `CC1CC/C(=N/Nc2nc(-c3ccc4ccccc4c3)cs2)C1` (centres undefined), the inhibition in assay [1] came out at 0%; in assay [2] it was 4%.
For the compound `CC(C)=NNc1nc(-c2cc3ccccc3oc2=O)cs1`, the inhibition was found to be 46% in assay [3], 12% in assay [1], 56% in assay [4] and 32% in assay [2].
With `CCOC(=O)c1csc(N/N=C2/CCC(C)C2)n1` (centres undefined), the inhibition in assay [1] was determined as 8%; in assay [2] it was 22%.
Take `CC(C)=NNc1nc(-c2ccccc2)cc(=O)[nH]1`: in assay [2], the inhibition came out at 4%.
With `CC1CC/C(=N/Nc2nc(-c3ccc(F)cc3F)cs2)C1` (centres undefined), the inhibition was 18% in assay [1] and 14% in assay [2].
Take `CCOC(=O)c1csc(NN=C2CCCC2)n1`: the inhibition in assay [1] amounted to 5%; in assay [2], 19%.
In the case of `CC/C(C)=N/Nc1nc(-c2ccc(Cl)cc2)cs1`, the inhibition in assay [1] came to 8%; in assay [2], 33%.
The like results for `C/C(=N/Nc1nc(-c2ccc(Cl)cc2)cs1)C1c2ccccc2-c2ccc(C(=O)O)cc21` (centres undefined) were, in that order, 14% and 37%.
The like results for `CCC(CC)=NNc1nc(-c2ccc(Cl)cc2)cs1` were, in that order, 10% and 35%.
On to `NNc1nc(-c2ccccc2)cs1`, for which the inhibition in assay [1] turned out to be 16%; in assay [2], 5%.
The like results for `C/C(=N/Nc1nc(-c2ccc(Cl)cc2)cs1)c1ccncc1` were, in that order, 10% and 36%.
Turning to `Cc1sc(N/N=C2/CCC(C)C2)nc1-c1ccccc1` (centres undefined), the inhibition in assay [1] worked out at 3%; in assay [2], 15%.
The like results for `Clc1ccc(-c2csc(N/N=C\c3ccncc3)n2)cc1` were, in that order, 13% and 37%.
On to `CCC/C(C)=N/Nc1nc(-c2ccc(Cl)cc2)cs1`, for which the figures for the inhibition in assay [1] and in assay [2] were 7% and 19%, respectively.
Regarding `CCCC/C(C)=N/Nc1nc(-c2ccc(Cl)cc2)cs1`, the inhibition in assay [1] stood at 8%; in assay [2], 0%.
The like results for `COc1ccc(-c2csc(NN=C(C)C)n2)cc1` were, in that order, 5% and 21%.
The like results for `C/C(=N/Nc1nc(-c2ccc(Cl)cc2)cs1)c1ccc2ccccc2c1` were, in that order, 7% and 16%.
The like results for `Cc1sc(NN=C2CCCC2)nc1-c1ccccc1` were, in that order, 2% and 2%.
Consider `CC(C)=NN=C1NC(=O)CS1`, for which the values for the inhibition in assay [1] and in assay [2] were 7% and 14%, respectively.
With `CC(C)=NNc1nc(-c2ccc(Cl)cc2)cc(=O)[nH]1`, the inhibition in assay [2] stood at 7%.
On to `C/C(=N/Nc1nc(-c2ccc(Cl)cc2)cs1)C1CCCCC1`, for which the inhibition came out at 8% in assay [1] and 3% in assay [2].
The like results for `CC1CCC/C(=N/Nc2nc(-c3ccc(Cl)cc3)cs2)C1` (centres undefined) were, in that order, 0% and 9%.
The like results for `CC1CC/C(=N/Nc2nc(-c3ccc(F)cc3)cs2)C1` (centres undefined) were, in that order, 8% and 5%.
The like results for `C/C(=N/Nc1nc(-c2ccc(Cl)cc2)cs1)c1cccs1` were, in that order, 5% and 26%.
On to `Clc1ccc(-c2csc(NN=C3CCCC3)n2)c(Cl)c1`, for which the inhibition in assay [1] was determined as 21%; in assay [2], 30%.
Regarding `COc1ccc(-c2csc(N/N=C3/CCCC(C)C3)n2)cc1` (centres undefined), the values for the inhibition in assay [1] and in assay [2] were 4% and 19%, respectively.
The like results for `COc1cccc(-c2csc(NN=C(C)C)n2)c1` were, in that order, 4% and 30%.
The like results for `COc1ccc(-c2csc(N/N=C3\CCC[C@@H](C)C3)n2)cc1` were, in that order, 0% and 27%.
As to `O=c1cc(-c2cccc([N+](=O)[O-])c2)nc(NN=C2CCCC2)[nH]1`, the inhibition in assay [2] was 9%.
Take `Clc1ccc(-c2csc(NN=C3CCCCCC3)n2)cc1`: the inhibition in assay [1] is 0%; in assay [2] it was 20%.
Turning to `CC1CC/C(=N/Nc2nc(-c3cccc([N+](=O)[O-])c3)cc(=O)[nH]2)C1` (centres undefined), in assay [2], the inhibition was determined as 14%.
In the case of `CCOC(=O)c1csc(NN=C(C)C)n1`, the results for the inhibition in assay [1] and in assay [2] were 0% and 22%, respectively.
The like results for `CC(C)=NNc1nc(-c2ccccc2)cs1` were, in that order, 0% and 14%.
The like results for `COc1ccc(-c2csc(N/N=C3/CCC(C)C3)n2)cc1` (centres undefined) were, in that order, 5% and 28%.
The like results for `CC(C)=NNc1nc(-c2ccc(Cl)cc2Cl)cs1` were, in that order, 16% and 30%.
With `CC(C)=NNc1nc(-c2cccc([N+](=O)[O-])c2)cc(=O)[nH]1`, in assay [2], the inhibition stood at 4%.
With `Nc1nc(-c2ccc(Cl)cc2)cs1`, the inhibition in assay [1] is 0%; in assay [2] it was 31%.
With `O=c1cc(-c2ccccc2)nc(NN=C2CCCC2)[nH]1`, the inhibition in assay [2] amounted to 3%.
With `C[C@@H]1CCC/C(=N/Nc2nc(-c3ccc(Cl)cc3)cs2)C1`, the inhibition amounted to 0% in assay [1] and 27% in assay [2].
`CC(C)=NNc1nc(-c2ccc(-c3ccccc3)cc2)cs1`: the inhibition stood at 0% in assay [1] and 20% in assay [2].
The like results for `COc1ccc(-c2csc(NN=C3CCCCCC3)n2)cc1` were, in that order, 0% and 16%.
For the compound `Clc1ccc(-c2csc(N/N=C\c3cccnc3)n2)cc1`, the inhibition in assay [1] was found to be 17%; in assay [2], 28%.

Source of the values: ChEMBL document CHEMBL3259575, “Evaluation of a large library of (thiazol-2-yl)hydrazones and analogues as histone acetyltransferase inhibitors: enzyme and cellular studies” (2014).
